Where a name gives a salt, the structure may show the parent alone. Read-outs that look alike come from different tables or passages of the source.
Tests used:
human β3 = biological target: T1, human β3 (Homo sapiens, UniProt P13945); experiment: Human β3-agonist activity (cAMP accumulation in CHO cells transfected with human β3 gene); format: cell-based
T1 construct: inserted the 1st exon of human β3 gene was transfected; expressed in transfected cells; host or cells: CHO cells (Chinese hamster ovary), pcDNA3 vector
T1 sequence (P13945 1-402 limits assumed): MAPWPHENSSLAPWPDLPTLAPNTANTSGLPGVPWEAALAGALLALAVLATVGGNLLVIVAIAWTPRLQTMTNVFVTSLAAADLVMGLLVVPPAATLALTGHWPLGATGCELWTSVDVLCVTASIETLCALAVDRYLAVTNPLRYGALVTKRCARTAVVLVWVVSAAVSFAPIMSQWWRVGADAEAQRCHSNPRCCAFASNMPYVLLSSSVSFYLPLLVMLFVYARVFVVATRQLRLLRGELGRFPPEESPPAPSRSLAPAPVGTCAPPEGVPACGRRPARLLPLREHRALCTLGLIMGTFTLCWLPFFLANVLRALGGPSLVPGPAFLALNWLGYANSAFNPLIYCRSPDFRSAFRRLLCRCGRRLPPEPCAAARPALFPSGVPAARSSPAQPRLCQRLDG
Protocol: Human β3-agonist Activity Human β3-agonist activity was examined using CHO cells (chinese hamster ovarian cells) to which pcDNA3 (in vitrogen) inserted the 1st exon of human β3 gene was transfected. Human β3 fragment was obtained by PCR using human fat tissue cDNA (supplied from Clontech) with a […] [Krief et al, J. Clin. Invest., Vol. 91, p344-349 (1993)]. And then full length of human […] was cloned using this fragment as a probe.
The cells were cultured in a HAM F-12 medium containing 10% of fetal bovine serum, 400 μg/ml of Geneticin (Gibco BRL), 100 U/ml penicillin and 100 μg/ml streptomycin. 5×10^5 cells were placed on a 6-well plate and cultured for 24 hours, after which the medium was changed to a HAM F-12 medium without serum and was kept for 2 hours. Each test compound was first dissolved in DMSO, and then diluted with a HAM F-12 medium containing 1 mM isobutylmethyl xanthine and 1 mM ascorbic acid. A 10-fold dilution in the range of 10^-5 to 10^-12 M was added into the cells.
After culturing for 30 minutes, culture medium was withdrawn, 0.5 ml of 1 N NaOH was added and was kept for 20 minutes. Ater then 0.5 ml of 1 N acetic acid was added with subsequent agitation and centrifugation. Finally, concentration of cAMP were analyzed using cAMP EIA KIT (Cayman). […] CL316,243 was synthesized by the method given in J. Med. Chem., Vol. 35, p3081-3084 (1992).

rat adipocytes = experiment: Lipolytic activity in rat adipocytes (glycerol concentration); format: cell-based; conditions: Adipocyte; for EC50: rat adipocytes, glycerol release, 37° C., 1 hour, read-out: ED50 (the source's name); for Emax: Rattus norvegicus, 1 h, read-out: Intrinsic activity(%)
Protocol: Lipolytic Activity in Rat Adipocytes Adipose tissues were collected from epididymis and minced. Krebs-Ringer buffer solution containing 1 mg/ml Collagenase (Sigma) and 1% of bovine serum albumin was added in an amount of 3 ml per one gram of the tissue. These cells were then incubated at 37° C. for 30 minutes with shaking and then undigested tissues were removed with a nylon filter. The resulting adipocytes were washed four times with Krebs-Ringer buffer, and then cells was diluted to 2×10^5 cells/ml with Krebs-Ringer buffer solution containing 4% of bovine serum albumin. These cells were transferred to Eppendorf tubes each in an amount of 300 μl. Each 300 μl of a culture medium containing the test compounds was added to these tubes and was held at 37° C. for 1 hour with shaking. Stimulation was stopped by cooling with ice. After centrifugation, the adipocytes were taken off with an aspirator, and then the concentration of glycerol was determined using F-KIT GLYCEROL (Behringer-Manheim).

[1] = Blood glucose lowering effect in glucose-loaded mice; format: in vivo, male ddy mice; conditions: intraperitoneal, 10 mg/kg; 1 hour; glucose load 2 g/kg s.c.
Protocol: Blood Glucose Lowering Effect and Lipolytic Effect
Glucose was subcutaneously administered to male ddy mice (supplied from the dirm Nippon Charles Liver) of 6 weeks age at a dose of 2 g/kg. The animals were also treated with either one of test compounds via oral or intraperitoneal administration at a dose of 0.1 ml per 10 g of body weight. After one hour, blood sample was taken from abdominal aorta, serum was separated and served as the sample.
Blood Glucose Lowering Effect:
The samples prepared as above were analyzed for the serum glucose concentration by Auto analyzer (SUPER Z of the firm M. C. Medical). For the analyzer kit, Glucose 11 HA TEST WAKO (of the firm Wako Pure Chemical) was used.
% decrease in blood glucose=[(A-B)/(A-C)]×100
in whcih A represents the glucose concentration after loading glucose, B represents the glucose concentration after administration of the compound and C is the usual level of the glucose concentration.

[2] = Lipolytic effect in mice (serum free fatty acid); format: in vivo, male ddy mice; conditions: intraperitoneal, 10 mg/kg; 1 hour
Protocol: Blood Glucose Lowering Effect and Lipolytic Effect Glucose was subcutaneously administered to male ddy mice (supplied from the dirm Nippon Charles Liver) of 6 weeks age at a dose of 2 g/kg. […] After one hour, blood sample was taken from abdominal aorta, serum was separated and served as the sample. Lipolytic Effect: Amount of free fatty acid in the samples was determined using NEFA HA TEST WAKO (of the firm Wako Pure Chemical). […] Therefore, it was shown that they are useful for preventive and therapeutic treatment of hyperlipemia and obesity.

[3] = set-up: species or system male ddy mice; conditions: mouse, in vivo, po, 100 mg/kg
Protocol: The compounds of Example 2 was orally administered to 6 weeks age male ddy mice (supplied from the firm Nippon Chrles Liver) at a dose of 100 mg/kg.

[4] = CHO cells expressing human β3, cAMP, 30 minutes; read-out: ED50 (the source's name)
[5] = CHO, read-out: Intrinsic activity(%)

Row | Structure (SMILES) | EC50 (human β3; [4]) | Emax (human β3; [5]) | Emax (human β3; CHO; read-out: Intrinsic activity(%)) | EC50 (rat adipocytes) | Emax (rat adipocytes) | reduction of blood glucose [1] | increase of free fatty acid concentration [2] | fatal cases [3]
1 | CN(C)S(=O)(=O)Nc1cc([C@@H](O)CNCCOc2ccc3c4c(oc3c2)CCCC4)ccc1O [Example 22, (R)-N'-[5-[2-[2-(6,7,8,9-tetrahydrodibenzofuran-3-yloxy)ethylamino]-1-hydroxyethyl]-2-hydroxyphenyl]-N,N-dimethylsulfamide hydrochloride] | 27 nM | 84% | – | – | – | – | – | –
2 | C[C@H](Cc1ccc(OCC(=O)O)cc1)NC[C@H](O)c1cccc(Cl)c1 [BRL37344, reference compound] | – | – | 29% | – | – | – | – | –
3 | CS(=O)(=O)Nc1cc([C@@H](O)CNCCOc2ccc3c4c([nH]c3c2)CCCC4)ccc1Br [Example 15, (R)-N-[5-[2-[2-(5,6,7,8-tetrahydro-9H-carbazol-2-yloxy)ethylamino]-1-hydroxyethyl]-2-bromophenyl]methanesulfonamide hydrochloride] | 40 nM | 72% | – | – | – | – | – | –
4 | CS(=O)(=O)Nc1cc(C(O)CNCCOc2ccc3c4c([nH]c3c2)CCCC4)ccc1Cl (racemic) [Example 14, (±)-N-[5-[2-[2-(5,6,7,8-tetrahydro-9H-carbazol-2-yloxy)ethylamino]-1-hydroxyethyl]-2-chlorophenyl]methanesulfonamide hydrochloride] | 25 nM | 62% | – | – | – | – | – | –
5 | CN(C)S(=O)(=O)Nc1cc([C@@H](O)CNCCOc2ccc3c4c([nH]c3c2)CCCC4)ccc1O.Cl [Example 2, (R)-N'-[5-[2-[2-(5,6,7,8-tetrahydro-9H-carbazol-2-yloxy)ethylamino]-1-hydroxyethyl]-2-hydroxyphenyl]-N,N-dimethylsulfamide hydrochloride] | 0.26 nM | 63% | – | 2000 nM | 127% | showed a reduction of blood glucose | showed an increase of free fatty acid concentration | no fatal case was found
6 | CS(=O)(=O)Nc1cc([C@@H](O)CNCCOc2ccc3c4c([nH]c3c2)CCCC4)ccc1O [Example 6, (R)-N-[5-[2-[2-(5,6,7,8-tetrahydro-9H-carbazol-2-yloxy)ethylamino]-1-hydroxyethyl]-2-hydroxyphenyl]methanesulfonamide hydrochloride] | 0.021 nM | 84% | – | 200 nM | 132% | – | – | –
7 | CS(=O)(=O)Nc1cc([C@@H](O)CNCCOc2ccc3c4c([nH]c3c2)CCCC4)ccc1OCc1ccccc1 [Example 5, (R)-N-[5-[2-[2-(5,6,7,8-tetrahydro-9H-carbazol-2-yloxy)ethylamino]-1-hydroxyethyl]-2-benzyloxyphenyl]methanesulfonamide hydrochloride] | 570 nM | 101% | – | – | – | – | – | –
8 | CC(C)NCC(O)c1ccc(O)c(O)c1 (stereo not shown) [isoproterenol, reference compound] | – | – | – | 92 nM | 100% | – | – | –
9 | CS(=O)(=O)Nc1cc([C@@H](O)CNCCOc2ccc3c4c([nH]c3c2)CCCC4)ccc1F [Example 9, (R)-N-[5-[2-[2-(5,6,7,8-tetrahydro-9H-carbazol-2-yloxy)ethylamino]-1-hydroxyethyl]-2-fluorophenyl]methanesulfonamide hydrochloride] | 29 nM | 47% | – | – | – | – | – | –
10 | CS(=O)(=O)Nc1cccc(C(O)CNCCOc2ccc3c4c([nH]c3c2)CCCC4)c1 (racemic) [Example 17, (±)-N-[3-[2-[2-(5,6,7,8-tetrahydro-9H-carbazol-2-yloxy)ethylamino]-1-hydroxyethyl]phenyl]methanesulfonamide hydrochloride] | 92 nM | 78% | – | – | – | – | – | –
11 | CS(=O)(=O)Nc1cc([C@@H](O)CNCCOc2ccc3c4c(oc3c2)CCCC4)ccc1O [Example 26, (R)-N-[5-[2-[2-(6,7,8,9-tetrahydrodibenzofuran-3-yloxy)ethylamino]-1-hydroxyethyl]-2-hydroxyphenyl]methanesulfonamide hydrochloride] | 31 nM | 111% | – | 39 nM | 118% | – | – | –
12 | CS(=O)(=O)Nc1cc([C@@H](O)CNCCOc2ccc3c4c(sc3c2)CCCC4)ccc1O [Example 28, (R)-N-[5-[2-[2-(6,7,8,9-tetrahydrodibenzothiophen-3-yloxy)ethylamino]-1-hydroxyethyl]-2-hydroxyphenyl]methanesulfonamide hydrochloride] | 0.11 nM | 96% | – | 400 nM | 140% | – | – | –
